Experimental data as given in patent US7109231B2, “Cyclohept[b]indole derivatives” (Eli Lilly and Company, priority 2001, dated 2006).

Target: T1, recombinant human secreted phospholipase A2 (Homo sapiens, UniProt P14555)
T1 sequence (P14555 21-144): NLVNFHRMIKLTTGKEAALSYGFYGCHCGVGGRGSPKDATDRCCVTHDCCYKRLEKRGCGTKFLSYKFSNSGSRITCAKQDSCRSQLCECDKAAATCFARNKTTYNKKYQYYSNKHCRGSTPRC
Experiment: chromogenic assay for inhibitors of recombinant human secreted phospholipase A2
Type: biochemical
Conditions: diheptanoyl thio-PC substrate, pH 7.5, 40° C. for 30 minutes, absorbance at 405 nanometers, titrated in triplicate
Description: The following chromogenic assay procedure was used to identify and evaluate inhibitors of recombinant human secreted phospholipase A2. The assay described herein has been adapted for high volume screening using 96 well microtiter plates. A general description of this assay method is found in the article, “Analysis of Human Synovial Fluid Phospholipase A2 on Short Chain Phosphatidylcholine-Mixed Micelles: Development of a Spectrophotometric Assay Suitable for a Microtiterplate Reader”, by Laure J. Reynolds, Lori L. Hughes, and Edward A Dennis, Analytical Biochemistry, 204, pp. 190–197, 1992 (the disclosure of which is incorporated herein by reference): […]
A measured volume of racemic dipheptanoyl thio PC supplied in chloroform at a concentration of 100 mg/ml is taken to dryness and redissolved in 10 millimolar TRITON X-100™ nonionic detergent aqueous solution. […]
• 1. […] Read absorbance of wells at 405 nanometers with an automatic plate reader.
Tests were done in triplicate. […] Compounds initially found to be active were re-assayed to confirm their activity and, if sufficiently active, IC50 values were determined. […] In all cases, % inhibition measured at 405 nanometers generated by enzyme reactions containing inhibitors relative to the uninhibited control reactions was determined. […]

IC50: 0.248 µM
Structure (SMILES): NC(=O)C1CCCCc2c1c1c(OCC(=O)O)cccc1n2Cc1ccccc1 (stereo not shown) [Example 1, (5-Benzyl-10-carbamoyl-5,6,7,8,9,10-hexahydro-cyclohepta[b]indol-1-yloxy)acetic Acid]
